This note sets out measurements from patent US8802713B2, “3-alkoxy-1-phenylpyrazole derivatives and pesticides” (Kumiai Chemical Industry Co., Ltd., priority 2007, dated 2014).

In one data set the test system is cotton aphid. In words: Insecticidal test on cotton aphid (seedling dip). Type of data set: in vivo. The conditions noted are these: Aphis gossypii, 72 h. As to the method:
A wettable powder prepared in accordance with Formulation Example 2 was diluted with water to a concentration of an active ingredient of 500 ppm. Cucumber seedlings which had been inoculated with larvae of cotton aphid were dipped in this solution and dried in air. The treated cucumber seedlings were placed in a thermostatic chamber at 25° C. for 3 days, and the live insects were counted for calculation of the mortality by Equation 2. The test was carried out by one series system.

In another data set the test system is diamondback moth. In words: Insecticidal test on diamondback moth. Type of data set: in vivo. The note with it: Plutella xylostella, 144 h. The protocol:
A wettable powder prepared in accordance with Formulation Example 2 was diluted with water to a concentration of an active ingredient of 500 ppm. Cabbage leaves were dipped in this solution and dried in air and then put in a plastic cup having a capacity of 60 mL. 10 second-instar larvae of diamondback moth were released in the cup and the cup was lidded. Then, the cup was placed in a thermostatic chamber at 25° C. for 6 days, and dead moths were counted for calculation of the mortality by Equation 2. The test was carried out by one series system.

Another data set relates to cotton bollworm. The data set is described as follows: Insecticidal test on cotton bollworm. Type of data set: in vivo. The note with it: Helicoverpa armigera, 144 h. The protocol:
A wettable powder prepared in accordance with Formulation Example 2 was diluted with water to a concentration of an active ingredient of 500 ppm. Cabbage leaves were dipped in this solution and dried in air and then put in a plastic cup having a capacity of 60 mL. Five hatched larvae of cotton bollworm were released in the cup, and the cup was lidded and placed in a thermostatic chamber at 25° C. for 6 days, and the number of dead larvae were assessed for calculation of the mortality by Equation 2. The test was carried out by two series system.

A further data set deals with brown rice planthopper. The data set is described as follows: Insecticidal test on brown rice planthopper. Type of data set: in vivo. The conditions noted are these: 144 h. The procedure, abridged:
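Rice sprouts dipped in 500 ppm active ingredient (water-diluted wettable powder), then exposed to ten third-instar brown rice planthopper larvae. Held at 25° C. for 6 days; dead larvae counted for mortality, single series.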

The test system of another data set is two-spotted spider mites. The data set is described as follows: Miticidal test on two-spotted spider mites (seedling dip). Type of data set: in vivo, Tetranvchus urticae. The note with it: Glycine max, 312 h, read-out: protective value. In outline: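 Soybean seedlings carrying adult mites were dipped in wettable-powder dilution at 500 ppm active ingredient, air-dried, and held at 25° C for 13 days. Live mites were counted and a protective value calculated.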

Data set [1] has as its system southern root-knot nematodes. The data set is described as follows: Nematicidal test on root-knot nematode. Type of data set: in vivo. The conditions noted are these: Meloidogyne incognita, 120 h. The protocol: A compound to be tested was dissolved in N,N-dimethylformamide containing 1 mass % of tween 20, and this solution was diluted with distilled water to a concentration of an active ingredient of 20 ppm. 0.5 mL of the solution was mixed with 0.5 mL of a suspension containing about 30 second-instar larvaes of southern root-knot nematodes, and the mixture was placed in a thermostatic chamber at 25° C. for 5 days. The number of dead nematodes and the number of live nematodes were assessed by a microscope for calculation of the mortality by Equation 3. The test was carried out by two series system.

[2] abbreviates: 500 ppm active ingredient, soybean seedlings with imago mites dipped, 25° C., 13 days.
[3] abbreviates: 500 ppm active ingredient, cucumber seedlings with larvae of cotton aphid dipped, 25° C., 3 days, read-out: mortality.
Setting [4] is: 500 ppm active ingredient, cabbage leaves dipped, second-instar larvae, 25° C., 6 days, read-out: mortality.
Setting [5] is: 500 ppm active ingredient, cabbage leaves dipped, hatched larvae, 25° C., 6 days, read-out: mortality.

Read-outs that look alike come from different tables or passages of the source. A value given as a limit tells only on which side of the number the result lay.

In the case of `Cc1cc(F)c(-n2nc(OC(F)(F)C(F)C(F)(F)F)cc2N)cc1SCC(F)(F)F` (centres unmarked) [1-9, 5-amino-1-{2-fluoro-4-methyl-5-(2,2,2-trifluoroethylthio)phenyl}-3-(1,1,2,3,3,3-hexafluoropropoxy)pyrazole], the mortality at 500 ppm in the data set on cotton aphid (in Cucumis sativus), with diamondback moth (in Brassica oleracea), with cotton bollworm (in Brassica oleracea) and in the data set on brown rice planthopper was not below 90% each time. Further, the pest or weed control at 500 ppm in the data set on two-spotted spider mites (setting [2]) was not below 90%.

With `CC(=O)Nc1cc(OC(F)(F)C(F)OC(F)(F)F)nn1-c1cc(SCC(F)(F)F)c(C)cc1F` (centres unmarked) [1-15, 5-acetylamino-1-{2-fluoro-4-methyl-5-(2,2,2-trifluoroethylthio)phenyl}-3-{1,1,2-trifluoro-2-(trifluoromethoxy)ethoxy}pyrazole], the mortality at 500 ppm in the data set on cotton aphid (in Cucumis sativus), with diamondback moth (in Brassica oleracea), in the data set on cotton bollworm (in Brassica oleracea) and with brown rice planthopper was not below 90% throughout. The pest or weed control at 500 ppm in the data set with two-spotted spider mites (setting [2]) was not below 90%.

Turning to `CC(=O)Nc1cc(OCC(F)(F)C(F)(F)F)nn1-c1cc(SCC(F)(F)F)c(C)cc1F` [1-17, 5-acetylamino-1-{2-fluoro-4-methyl-5-(2,2,2-trifluoroethylthio)phenyl}-3-(2,2,3,3,3-pentafluoropropoxy)pyrazole], the mortality at 500 ppm in the data set on cotton aphid (in Cucumis sativus), with diamondback moth (in Brassica oleracea), with cotton bollworm (in Brassica oleracea) and in the data set on brown rice planthopper was not below 90% throughout. Also, the pest or weed control at 500 ppm in the data set on two-spotted spider mites (setting [2]) is not below 90%.

Regarding `Cc1cc(F)c(-n2nc(OCC(F)(F)C(F)(F)F)cc2C)cc1[S+]([O-])CC(F)(F)F` (centres unmarked) [1-92, 1-{2-fluoro-4-methyl-5-(2,2,2-trifluoroethylsulfinyl)phenyl}-5-methyl-3-(2,2,3,3,3-pentafluoropropoxy)pyrazole], the mortality at 500 ppm with cotton aphid (in Cucumis sativus) and in the data set on brown rice planthopper was not below 90% each time. Further, in the data set with two-spotted spider mites (setting [2]), the pest or weed control at 500 ppm was not below 90%. For the same compound, the mortality at 20 ppm in data set [1] was not below 90%.

The compound `Cc1cc(F)c(-n2nc(OCC(F)(F)C(F)(F)F)cc2CC(N)=O)cc1SCC(F)(F)F` [1-139, 1-{2-fluoro-4-methyl-5-(2,2,2-trifluoroethylthio)phenyl}-3-(2,2,3,3,3-pentafluoropropoxy)pyrazole-5-carboxyamide] yielded a melting point of 102 to 104 °C.

In the case of `CCOC(=O)c1cc(OCC(F)(F)C(F)(F)F)nn1-c1cc(SCC(F)(F)F)c(C)cc1F` [1-143, ethyl 1-{2-fluoro-4-methyl-5-(2,2,2-trifluoroethylthio)phenyl}-3-(2,2,3,3,3-pentafluoropropoxy)pyrazole-5-carboxylate], the melting point fell in the range of 81 to 84 °C.

Take `C#CCNc1cc(OCC(F)(F)C(F)(F)F)nn1-c1cc(SCC(F)(F)F)c(C)cc1F` [1-161, 1-{2-fluoro-4-methyl-5-(2,2,2-trifluoroethylthio)phenyl}-3-(2,2,3,3,3-pentafluoropropoxy)-5-(2-propynylamino)pyrazole]: the mortality at 500 ppm in the data set on cotton aphid (in Cucumis sativus), in the data set with diamondback moth (in Brassica oleracea), in the data set with cotton bollworm (in Brassica oleracea) and in the data set with brown rice planthopper was not below 90% throughout. Moreover, the pest or weed control at 500 ppm in the data set with two-spotted spider mites (setting [2]) was not below 90%.

As for `C#CCNc1cc(OCC(F)(F)C(F)(F)F)nn1-c1cc([S+]([O-])CC(F)(F)F)c(C)cc1F` (centres unmarked) [1-162, 1-{2-fluoro-4-methyl-5-(2,2,2-trifluoroethylsulfinyl)phenyl}-3-(2,2,3,3,3-pentafluoropropoxy)-5-(2-propynylamino)pyrazole], the mortality at 500 ppm in the data set on cotton aphid (in Cucumis sativus), in the data set on diamondback moth (in Brassica oleracea) and in the data set with cotton bollworm (in Brassica oleracea) was not below 90% throughout. In the data set with two-spotted spider mites (setting [2]), the pest or weed control at 500 ppm is not below 90%. The mortality at 20 ppm in data set [1] was not below 90%.

`CNc1cc(OC(F)(F)C(F)OC(F)(F)C(F)(F)C(F)(F)F)nn1-c1cc(SCC(F)(F)F)c(C)cc1F` (centres unmarked) [1-347, 1-{2-fluoro-4-methyl-5-(2,2,2-trifluoroethylthio)phenyl}-5-methylamino-3-{1,1,2-trifluoro-2-(heptafluoropropoxy)ethoxy}pyrazole]: the mortality at 500 ppm in the data set on cotton aphid (setting [3]), in the data set with diamondback moth (setting [4]), in the data set on cotton bollworm (setting [5]) and with brown rice planthopper was not below 90% throughout. The pest or weed control at 500 ppm in the data set with two-spotted spider mites is not below 90%.

With `CNc1cc(OC(F)(F)C(F)OC(F)(F)C(F)(F)C(F)(F)F)nn1-c1cc([S+]([O-])CC(F)(F)F)c(C)cc1F` (centres unmarked) [1-348, 1-{2-fluoro-4-methyl-5-(2,2,2-trifluoroethylsulfinyl)phenyl}-5-methylamino-3-{1,1,2-trifluoro-2-(heptafluoropropoxy)ethoxy}pyrazole], the mortality at 500 ppm in the data set with diamondback moth (setting [4]) and in the data set with cotton bollworm (setting [5]) was not below 90% throughout. For the same compound, in the data set with two-spotted spider mites, the pest or weed control at 500 ppm was not below 90%. In data set [1], this compound came in with a mortality at 20 ppm not below 90%.

Regarding `C#CCNc1cc(OC(F)(F)C(F)OC(F)(F)C(F)(F)C(F)(F)F)nn1-c1cc(SCC(F)(F)F)c(C)cc1F` (centres unmarked) [1-357, 1-{2-fluoro-4-methyl-5-(2,2,2-trifluoroethylthio)phenyl}-5-(2-propynylamino)-3-{1,1,2-trifluoro-2-(heptafluoropropoxy)ethoxy}pyrazole], the mortality at 500 ppm in the data set on cotton aphid (setting [3]), in the data set with diamondback moth (setting [4]), with cotton bollworm (setting [5]) and in the data set on brown rice planthopper was not below 90% throughout. Besides, the pest or weed control at 500 ppm in the data set with two-spotted spider mites is not below 90%.

For the compound `COc1cc(OC(F)(F)C(F)OC(F)(F)F)nn1-c1cc([S+]([O-])CC(F)(F)F)c(C)cc1F` (centres unmarked) [1-795, 1-{2-fluoro-4-methyl-5-(2,2,2-trifluoroethylsulfinyl)phenyl}-5-methoxy-3-{1,1,2-trifluoro-2-(trifluoromethoxy)ethoxy}pyrazole], the mortality at 500 ppm in the data set with cotton aphid (in Cucumis sativus), in the data set on diamondback moth (in Brassica oleracea), in the data set on cotton bollworm (in Brassica oleracea) and in the data set with brown rice planthopper was not below 90% each time. Also, the pest or weed control at 500 ppm in the data set on two-spotted spider mites (setting [2]) was not below 90%.

As for `CC(=O)Nc1cc(OC(F)(F)C(F)F)nn1-c1cc([S+]([O-])CC(F)(F)F)c(C)cc1F` (centres unmarked) [1-1368, 5-acetylamino-1-{2-fluoro-4-methyl-5-(2,2,2-trifluoroethylsulfinyl)phenyl}-3-(1,1,2,2-tetrafluoroethoxy)pyrazole], the mortality at 500 ppm in the data set on cotton aphid (in Cucumis sativus), in the data set on diamondback moth (in Brassica oleracea), in the data set with cotton bollworm (in Brassica oleracea) and with brown rice planthopper was not below 90% in each case. Also, the pest or weed control at 500 ppm with two-spotted spider mites (setting [2]) is not below 90%.

As to `Cc1cc(F)c(-n2cc(C#N)c(OC(F)(F)C(F)OC(F)(F)F)n2)cc1SCC(F)(F)F` (centres unmarked) [1-1587, 4-cyano-1-{2-fluoro-4-methyl-5-(2,2,2-trifluoroethylthio)phenyl}-3-{1,1,2-trifluoro-2-(trifluoromethoxy)ethoxy}pyrazole], the melting point lay within 57 to 58 °C. In the data set on two-spotted spider mites (setting [2]), the pest or weed control at 500 ppm was not below 90%.

`Cc1cc(F)c(-n2nc(OCC(F)(F)C(F)(F)C(F)(F)F)cc2NC=O)cc1SCC(F)(F)F` [1-1593, 1-{2-fluoro-4-methyl-5-(2,2,2-trifluoroethylthio)phenyl}-5-formylamino-3-(2,2,3,3,4,4,4-heptafluorobutoxy)pyrazole]: the mortality at 500 ppm in the data set on cotton aphid (setting [3]), in the data set on diamondback moth (setting [4]), in the data set on cotton bollworm (setting [5]) and with brown rice planthopper was not below 90% in each case. Besides, the pest or weed control at 500 ppm in the data set on two-spotted spider mites was not below 90%.

The mortality is the percentage killed. For orientation: melting point means the temperature of the solid-liquid transition.
